Results on eleven molecules are retold here after patent publication US11702409B2, “Pyrazolyl derivatives useful as anti-cancer agents” (NOVARTIS AG, priority 2019, dated 2023).

By IC50 is commonly meant the concentration at which inhibition is half-maximal.

The target in the assay is KRasG12C (M1-K169, biotinylated on the N-terminus) (Homo sapiens (Human), UniProt P01116, G12C). Briefly: Covalent competition assay (scintillation proximity assay, competition with radiolabeled covalent probe Compound B). It counts as binding. The following applies: in vitro KRASG12C activity; 10 nM KRasG12C:GDP, 25 nM radio-ligand and 475 nM unlabelled ligand, incubated 2 hours; read-out: Covalent Competition Assay IC50. The procedure:
The cells were lysed by 4 passages through an Avestin Emulsiflex at about 20000 psi and insoluble debris removed by centrifugation and filtered through a 0.45 μm Durapore membrane (Millipore). […] The protein in the flow through was subjected to a final polishing step on a HiLoad 16/60 Superdex 200 prep grade size-exclusion column pre-equilibrated with SEC-buffer (20 mM HEPES pH 7.4, 150 mM NaCl, 5 mM MgCl2, 1 μM GDP).
A scintillation proximity assay (SPA) was used to determine the potency of the compounds. This assay measures the ability of the test compound to compete with the radiolabeled covalent probe for binding to and covalently modify KRASG12C.
A serial dilution of the compounds to be tested is mixed with a fixed concentration of the radiolabeled covalent probe before incubation with KRASG12C:GDP as described below.
The reaction was started by addition of KRasG12C (M1-K169, biotinylated on the N-terminus) to the compounds and incubated for 2 hours with continuous agitation allowing for full modification of KRasG12C with probe or test compounds. […] The assay buffer contained 20 mM Tris-HCl pH 7.5 (Invitrogen), 150 mM NaCl (Sigma Aldrich), 0.1 mM MgCl2 (Sigma Aldrich), and 0.01% Tween-20 (Sigma Aldrich).
Evaluation was carried out using assay data analysis software (such as the standard Novartis in-house Helios software application, Novartis Institutes for BioMedical Research, unpublished) using the methods described in Formenko et al., Robust Regression for high-throughput screening.
Evaluation can also be carried out using commercially available software which is designed to derive IC50 values using 4-parameter fits (e.g. GraphPad Prism, XL fit).
On the technique in general: Scintillation proximity formats need no separation of bound from free tracer.
Turning to `C=CC(=O)N1CC2(CC(n3nc(-c4ccc5nn(CC(C)(C)O)cc5c4)c(-c4c(Cl)c(C)cc5[nH]ncc45)c3C)C2)C1` (single isomer, unassigned) [Example 42b], the IC50 worked out at 1.2 µM.

`C=CC(=O)N1CC2(CC(n3nc(-c4ccc5nn(CCOCCOC)cc5c4)c(-c4c(Cl)c(C)cc5[nH]ncc45)c3C)C2)C1` (single isomer, unassigned) [Example 43a, 1-{6-[(4M)-4-(5-Chloro-6-methyl-1H-indazol-4-yl)-3-{2-[2-(2-methoxyethoxy)ethyl]-2H-indazol-5-yl}-5-methyl-1H-pyrazol-1-yl]-2-azaspiro[3.3]heptan-2-yl}prop-2-en-1-one]: the IC50 is 0.01 µM.

With `C=CC(=O)N1CC2(CC(n3nc(-c4ccc5nn(CCOCCOC)cc5c4)c(-c4c(Cl)c(C)cc5[nH]ncc45)c3C)C2)C1` (single isomer, unassigned) [Example 43b], the IC50 stood at 2.9 µM.

As to `C=CC(=O)N1CC2(CC(n3nc(-c4ccc5c(c4)CCN5CCOC)c(-c4c(Cl)c(C)cc5[nH]ncc45)c3C)C2)C1` (single isomer, unassigned) [Example 44a], the IC50 amounted to 0.019 µM.

With `C=CC(=O)N1CC2(CC(n3nc(-c4ccc5c(c4)CCN5CCOC)c(-c4c(Cl)c(C)cc5[nH]ncc45)c3C)C2)C1` (single isomer, unassigned) [Example 44b], the 50% inhibitory concentration (IC50) is over 5 µM.

Regarding `C=CC(=O)N1CC2(CC(n3nc(-c4ccnn4CC4CC4)c(-c4c(Cl)c(C)cc5[nH]ncc45)c3C)C2)C1` (single isomer, unassigned) [Example 45a, 1-(6-(4-(5-chloro-6-methyl-1H-indazol-4-yl)-2′-(cyclopropylmethyl)-5-methyl-1H,2′H-[3,3′-bipyrazol]-1-yl)-2-azaspiro[3.3]heptan-2-yl)prop-2-en-1-one], the IC50 was found to be 0.235 µM.

In the case of `C=CC(=O)N1CC2(CC(n3nc(-c4ccnn4CC4CC4)c(-c4c(Cl)c(C)cc5[nH]ncc45)c3C)C2)C1` (single isomer, unassigned) [Example 45b, 1-(6-(4-(5-chloro-6-methyl-1H-indazol-4-yl)-2′-(cyclopropylmethyl)-5-methyl-1H,2′H-[3,3′-bipyrazol]-1-yl)-2-azaspiro[3.3]heptan-2-yl)prop-2-en-1-one], the IC50 was over 50 µM.

Regarding `C=CC(=O)N1CC2(CC(n3nc(-c4ccccn4)c(-c4c(Cl)c(C)cc5[nH]ncc45)c3C)C2)C1` (single isomer, unassigned) [Example 46a, 1-(6-(4-(5-chloro-6-methyl-1H-indazol-4-yl)-5-methyl-3-(pyridin-2-yl)-1H-pyrazol-1-yl)-2-azaspiro[3.3]heptan-2-yl)prop-2-en-1-one], the IC50 came out at 0.423 µM.

As to `C=CC(=O)N1CC2(CC(n3nc(-c4ccccn4)c(-c4c(Cl)c(C)cc5[nH]ncc45)c3C)C2)C1` (single isomer, unassigned) [Example 46b, 1-(6-(4-(5-chloro-6-methyl-1H-indazol-4-yl)-5-methyl-3-(pyridin-2-yl)-1H-pyrazol-1-yl)-2-azaspiro[3.3]heptan-2-yl)prop-2-en-1-one], the IC50 was over 50 µM.

As to `C=CC(=O)N1CC2(CC(n3nc(-c4ccc(CO)cc4)c(-c4c(Cl)c(C)cc5[nH]ncc45)c3C)C2)C1` (single isomer, unassigned) [Example 47a, 1-(6-{(4M)-4-(5-Chloro-6-methyl-1H-indazol-4-yl)-3-[4-(hydroxymethyl)phenyl]-5-methyl-1H-pyrazol-1-yl}-2-azaspiro[3.3]heptan-2-yl)prop-2-en-1-one], the IC50 was 0.043 µM.

As to `C=CC(=O)N1CC2(CC(n3nc(-c4ccc(CO)cc4)c(-c4c(Cl)c(C)cc5[nH]ncc45)c3C)C2)C1` (single isomer, unassigned) [Example 47b, 1-(6-(4-(5-chloro-6-methyl-1H-indazol-4-yl)-3-(4-(hydroxymethyl)phenyl)-5-methyl-1H-pyrazol-1-yl)-2-azaspiro[3.3]heptan-2-yl)prop-2-en-1-one], the IC50 was 23.4 µM.
